Measured values from US20060057559A1, “High-throughput cell migration screening assay” (Rigel Pharmaceuticals, Inc., priority 2004, published 2006).
“Also recorded” adds a separate entry of the source. Where a name gives a salt, the structure may show the parent alone.

Key:
EDG1 = target: T1, EDG1 (Homo sapiens, UniProt P21453); test: Migration assay employing EDG1 as a migration molecule (T lymphoid cells overexpressing EDG1 migrating toward S1P, 96-well, CyQuant GR fluorescence); assay type: cell-based; conditions: migration in response to S1P, hydrochloride
T1 construct: expressed in transfected cells; host or cells: T lymphoid cell line (Jurkat, EDG1 #15 clone), retroviral TIM EDG1 vector, tetracycline-regulated
Description: (§1) Both cell lines were used to optimize assay parameters in order to maximize accuracy and throughput in an automated 96-well format. Compounds were added together with S1P in bottom receiver plate; lipid starved cells were placed in the upper filter plate. The T cell migration may be finished in 2 to 4 hours. The cells which migrated to the receiver plate were stained with a fluorescence dye (CyQuant GR™) and detected by a fluorescence plate reader.
On day one, EDG1 expressing cells were grown at 0.4 millions/ml in RPMI 1640 containing 10% lipid-free serum (Charcoal-Dextran-Stripped Fetal Bovine Serum, Cat# 100-502 (Gemini Bioproducts™)) for 24 hours. EDG1 cells are maintained below 1 million/ml at all times. On the next day, cells were spun down, washed once with serum-free medium and re-suspended in RPMI 1640 containing 0.1% BSA (fat-free, cell culture tested) (Cat# A8806 (SIGMA ALDRICH FLUKA CHEMICALS™)) at a density of 6×10^6 per ml. 170 μl RPMI 1640 (0.1% BSA) containing 20 nM S1P (Cat# SL-140 (BioMol™)) and/or desired drugs were added to the receiver plate of […] Millipore Multiscreen MIC™ plates (Cat# MAMI C3S 10, 3 um pore size (Millipore™)) and the filter plates were carefully placed over the receiver plate. […] After 30 min agitating at RT, the plate was read in a fluorescence plate reader using 480/520 nm filter set.

EDG3 = target: T2, EDG3 (Homo sapiens, UniProt Q99500); test: Migration assay employing EDG3 as a migration molecule (T lymphoid cells overexpressing EDG3 migrating toward S1P, 96-well, CyQuant GR fluorescence); assay type: cell-based
T2 construct: expressed in transfected cells; host or cells: T lymphoid cell line (Jurkat, EDG3 #1 clone), pNIGEDG3 vector, constitutive expression
Description: as §1
On day one, EDG3 expressing cells were grown at 0.8 millions/ml in RPMI 1640 containing 10% lipid-free serum (Charcoal-Dextran-Stripped Fetal Bovine Serum, Cat# 100-502 (Gemini Bioproducts™)) for 24 hours. EDG3 cells are maintained below 3 million/ml at all times. On the next day, cells were spun down, washed once with serum-free medium and re-suspended in RPMI 1640 containing 0.1% BSA (fat-free, cell culture tested) (Cat# A8806 (SIGMA ALDRICH FLUKA CHEMICALS™)) at a density of 8×10^6 per ml. 170 μl RPMI 1640 (0.1% BSA) containing 60 nM S1P (Cat# SL-140 (BiOMOl™)) and/or desired drugs were added to the receiver plate of […] Millipore Multiscreen MIC plates (Cat# MAMI C3S 10, 3 um pore size (Millipore™)) and the filter plates were carefully placed over the receiver plate. […] After 30 min agitating at RT, the plate was read in a fluorescence plate reader using 480/520 nm filter set.

T1 sequence (P21453 whole entry): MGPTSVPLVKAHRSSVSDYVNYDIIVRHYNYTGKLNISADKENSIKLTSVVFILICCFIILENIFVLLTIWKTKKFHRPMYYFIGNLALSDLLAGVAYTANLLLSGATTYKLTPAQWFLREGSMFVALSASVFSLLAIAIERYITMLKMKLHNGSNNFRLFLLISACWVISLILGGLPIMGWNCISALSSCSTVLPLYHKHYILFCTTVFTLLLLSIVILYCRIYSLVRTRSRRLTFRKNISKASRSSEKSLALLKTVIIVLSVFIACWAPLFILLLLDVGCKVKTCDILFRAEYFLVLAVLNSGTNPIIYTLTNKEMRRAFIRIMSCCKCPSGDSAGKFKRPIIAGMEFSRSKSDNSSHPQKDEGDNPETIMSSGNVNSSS
T2 sequence (Q99500 whole entry): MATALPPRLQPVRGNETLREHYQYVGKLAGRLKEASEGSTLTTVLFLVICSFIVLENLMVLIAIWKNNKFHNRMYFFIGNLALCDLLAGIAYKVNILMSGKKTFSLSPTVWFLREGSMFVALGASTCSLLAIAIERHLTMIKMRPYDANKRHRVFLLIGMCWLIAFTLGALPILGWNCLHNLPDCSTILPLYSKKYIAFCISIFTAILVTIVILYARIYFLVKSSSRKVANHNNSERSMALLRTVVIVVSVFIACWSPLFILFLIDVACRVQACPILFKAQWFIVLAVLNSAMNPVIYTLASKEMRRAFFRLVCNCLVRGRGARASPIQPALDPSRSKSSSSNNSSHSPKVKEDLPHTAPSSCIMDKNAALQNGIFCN

Row | Compound | inhibition of migration of EDG1 #15 clone (EDG1) | differential inhibition of EDG1 and EDG3 migration (EDG3; EDG1 versus EDG3 clones, FIG. 10B) | inhibition of migration of EDG3 #1 clone (EDG3; EDG3-overexpressing T lymphoid cells, migration in response to S1P)
1 | CCCCCCCCc1ccc(CCC(N)(CO)CO)cc1 [FTY720, 2-amino-2(2-[4-octylphenylethyl)-1,3-propanediol hydrochloride] | inhibition of migration; also recorded: specifically inhibit; also recorded: inhibits the migration of EDG1#15 clone | – | –
2 | Cc1ccc(C(=O)Nc2ccc(S(=O)(=O)O)c3cc(S(=O)(=O)O)cc(S(=O)(=O)O)c23)cc1NC(=O)c1cccc(NC(=O)Nc2cccc(C(=O)Nc3cc(C(=O)Nc4ccc(S(=O)(=O)O)c5cc(S(=O)(=O)O)cc(S(=O)(=O)O)c45)ccc3C)c2)c1 [suramin] | – | differential inhibition of EDG1 and EDG3 migration | specifically inhibit; also recorded: inhibition of EDG3 #1 clone migration
